Earlier results, collected in US20150283242A1, “EFFECTIVE PHARMACEUTICAL CARRIER FOR POORLY BIOAVAILABLE DRUGS” (Hovid Berhad, priority 2007, published 2015).

| Structure (SMILES) | log P (partition coefficient) |
| --- | --- |
| CC[C@H](C)C(=O)O[C@H]1C[C@H](O)C=C2C=C[C@H](C)[C@H](CC[C@@H](O)C[C@@H](O)CC(=O)O)[C@H]21 [pravastatin] | 2.42 |
| COC1=C(OC)C(=O)C(C/C=C(\C)CC/C=C(\C)CC/C=C(\C)CC/C=C(\C)CC/C=C(\C)CC/C=C(\C)CC/C=C(\C)CC/C=C(\C)CC/C=C(\C)CCC=C(C)C)=C(C)C1=O [ubiquonone] | more than 10 |
| COc1ccc2c(c1)c(CC(=O)O)c(C)n2C(=O)c1ccc(Cl)cc1 [indomethacin] | 4.27 |
| Cc1ccc(C)c(OCCCC(C)(C)C(=O)O)c1 [gemfibrozil] | 4.77 |
